Data as given in patent publication US6914045B2, “Glycopeptide antibiotics” (Wyeth Holdings Corporation, priority 2001, dated 2005).
Converted amounts (≈) assume the structure as drawn.

Key:
[1] = system: Staphylococcus aureus-SMITH (GC 4543); assay: acute lethal infection in mice; type: in vivo; details: acute lethal infection, female CD-1 mice, intraperitoneal challenge, intravenous 30 min. after infection, 7 day survival
Outline: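 Mice (female CD-1, 20+/−2 gm) receive bacteria ip in broth or hog gastric mucin, then test agent iv after 30 min. Median effective dose is calculated from 7 day survival pooled across 3 tests.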

Escherichia coli = assay: in vitro antibacterial evaluation, MIC by broth dilution; type: cell-based
Outline: (§1)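 MIC = lowest antibiotic concentration preventing visible growth; inoculum 5×10^5 CFU/mL; drug range 64-0.06 μg/mL; Muller-Hinton II […]; NCCLS M7-A2 guidance.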

Enterococcus sp. = assay: as above; type: cell-based; details: broth dilution, 18 hours at 35° C.; for MIC Enterococcus faecalis (ATCC 29212): strain ATCC 29212; for MIC Enterococcus faecalis (GC 2242): strain GC 2242; for MIC Enterococcus faecium (GC 2243): strain GC 2243; for MIC Enterococcus faecalis (GC 2691): strain GC 2691; for MIC Enterococcus faecalis (GC 3059): strain GC 3059; for MIC Enterococcus faecalis (GC 4552): strain GC 4552; for MIC Enterococcus faecalis (GC 4553): strain GC 4553; for MIC Enterococcus faecalis (GC 4554): strain GC 4554; for MIC Enterococcus faecium (GC 4556): strain GC 4556; for MIC Enterococcus faecium (GC 4557): strain GC 4557; for MIC Enterococcus avium (GC 4558): strain GC 4558; for MIC Enterococcus faecalis (GC 6189): strain GC 6189
Outline: as §1

Streptococcus sp. = assay: as above; type: cell-based; details: broth dilution, 18 hours at 35° C.; for MIC Streptococcus pneumoniae (ATCC 6301): strain ATCC 6301; for MIC Streptococcus pneumoniae (GC 1894): strain GC 1894; for MIC Streptococcus pyogenes (GC 4563): strain GC 4563; for MIC Streptococcus agalactiae (GC 4564): strain GC 4564; for MIC Streptococcus pneumoniae (GC 4565): strain GC 4565
Outline: as §1

Staphylococcus sp. = assay: as above; type: cell-based; details: broth dilution, 18 hours at 35° C.; for MIC Staphylococcus aureus (GC 1131): strain GC 1131
Outline: as §1

For `COc1ccc(Oc2cccc(C3OCC4OC(OC5C(CO)OC(Oc6ccc(CC7NC(=O)C(C(C)c8ccccc8)NC(=O)CNC(=O)C(CO)NC(=O)C(C(O)C8CNC(=N)N8C8OC(CO)C(O)C(O)C8O)NC(=O)C(C(O)C8CNC(=N)N8)NC7=O)cc6)C(O)C5O)C(O)C(O)C4O3)c2)cc1` (stereo not drawn) [Example 180, Cyclo[glycyl-β-methylphenylalanyl-O-[4-O-[4,6-O-[3-(4-methoxyphenoxy)benzylidene]hexopyranosyl]hexopyranosyl]tyrosyl-3-(2-iminoimidazolidin-4-yl)seryl-3-(3-hexopyranosyl-2-iminoimidazolidin-4-yl)serylseryl]], the median effective dose (ED50), Staphylococcus aureus-SMITH (GC 4543) [1] was 0.05 mg/kg, the “MIC Escherichia coli (ATCC 25922)” value (Escherichia coli; strain ATCC 25922, 18 hours at 35° C.) was greater than 64 µg/mL and the “MIC Escherichia coli (GC 4559)” value (Escherichia coli; strain GC 4559, 18 hours at 35° C.) was 64 µg/mL (≈ 42.5 µM). For the same molecule, the “MIC Escherichia coli (GC 4560)” value (Escherichia coli; strain GC 4560, 18 hours at 35° C.) was 2 µg/mL (≈ 1.33 µM), the “MIC Enterococcus faecalis (ATCC 29212)” value (Enterococcus sp.; inoculum 5×10^5 CFU/mL) was 4 µg/mL (≈ 2.66 µM) and the “MIC Enterococcus faecalis (GC 2242)” value (Enterococcus sp.; inoculum 5×10^5 CFU/mL) was 4 µg/mL (≈ 2.66 µM). The “MIC Enterococcus faecium (GC 2243)” value (Enterococcus sp.; inoculum 5×10^5 CFU/mL) was 2 µg/mL (≈ 1.33 µM), the “MIC Enterococcus faecalis (GC 2691)” value (Enterococcus sp.; inoculum 5×10^5 CFU/mL) was 2 µg/mL (≈ 1.33 µM) and the “MIC Enterococcus faecalis (GC 3059)” value (Enterococcus sp.; inoculum 5×10^5 CFU/mL) was 2 µg/mL (≈ 1.33 µM). For the same molecule, the “MIC Enterococcus faecalis (GC 4552)” value (Enterococcus sp.; inoculum 5×10^5 CFU/mL) was 2 µg/mL (≈ 1.33 µM), the “MIC Enterococcus faecalis (GC 4553)” value (Enterococcus sp.; inoculum 5×10^5 CFU/mL) was 2 µg/mL (≈ 1.33 µM) and the “MIC Enterococcus faecalis (GC 4554)” value (Enterococcus sp.; inoculum 5×10^5 CFU/mL) was 2 µg/mL (≈ 1.33 µM). For the same molecule, the “MIC Enterococcus faecium (GC 4556)” value (Enterococcus sp.; inoculum 5×10^5 CFU/mL) was 2 µg/mL (≈ 1.33 µM), the “MIC Enterococcus faecium (GC 4557)” value (Enterococcus sp.; inoculum 5×10^5 CFU/mL) was 2 µg/mL (≈ 1.33 µM) and the “MIC Enterococcus avium (GC 4558)” value (Enterococcus sp.; inoculum 5×10^5 CFU/mL) was 2 µg/mL (≈ 1.33 µM). The “MIC Enterococcus faecalis (GC 6189)” value (Enterococcus sp.; inoculum 5×10^5 CFU/mL) was 2 µg/mL (≈ 1.33 µM), the “MIC Enterococcus faecalis (ATCC 29212)” value (Enterococcus sp.) was 4 µg/mL (≈ 2.66 µM) and the “MIC Enterococcus faecalis (GC 2242)” value (Enterococcus sp.) was 4 µg/mL (≈ 2.66 µM). The “MIC Enterococcus faecium (GC 2243)” value (Enterococcus sp.) was 2 µg/mL (≈ 1.33 µM), the “MIC Enterococcus faecalis (GC 2691)” value (Enterococcus sp.) was 2 µg/mL (≈ 1.33 µM) and the “MIC Enterococcus faecalis (GC 3059)” value (Enterococcus sp.) was 2 µg/mL (≈ 1.33 µM). For the same molecule, the “MIC Enterococcus faecalis (GC 4552)” value (Enterococcus sp.) was 2 µg/mL (≈ 1.33 µM), the “MIC Enterococcus faecalis (GC 4553)” value (Enterococcus sp.) was 2 µg/mL (≈ 1.33 µM) and the “MIC Enterococcus faecalis (GC 4554)” value (Enterococcus sp.) was 2 µg/mL (≈ 1.33 µM). The “MIC Enterococcus faecium (GC 4556)” value (Enterococcus sp.) was 2 µg/mL (≈ 1.33 µM), the “MIC Enterococcus faecium (GC 4557)” value (Enterococcus sp.) was 2 µg/mL (≈ 1.33 µM) and the “MIC Enterococcus avium (GC 4558)” value (Enterococcus sp.) was 2 µg/mL (≈ 1.33 µM). The “MIC Enterococcus faecalis (GC 6189)” value (Enterococcus sp.) was 2 µg/mL (≈ 1.33 µM), the “MIC Streptococcus pneumoniae (ATCC 6301)” value (Streptococcus sp.; inoculum 5×10^5 CFU/mL) was less than 0.06 µg/mL and the “MIC Streptococcus pneumoniae (GC 1894)” value (Streptococcus sp.; inoculum 5×10^5 CFU/mL) was less than 0.06 µg/mL. For the same molecule, the “MIC Streptococcus pyogenes (GC 4563)” value (Streptococcus sp.; inoculum 5×10^5 CFU/mL) was less than 0.06 µg/mL, the “MIC Streptococcus agalactiae (GC 4564)” value (Streptococcus sp.; inoculum 5×10^5 CFU/mL) was less than 0.06 µg/mL and the “MIC Streptococcus pneumoniae (GC 4565)” value (Streptococcus sp.; inoculum 5×10^5 CFU/mL) was less than 0.06 µg/mL. The “MIC Streptococcus pneumoniae (ATCC 6301)” value (Streptococcus sp.) was less than 0.06 µg/mL, the “MIC Streptococcus pneumoniae (GC 1894)” value (Streptococcus sp.) was less than 0.06 µg/mL and the “MIC Streptococcus pyogenes (GC 4563)” value (Streptococcus sp.) was less than 0.06 µg/mL. The “MIC Streptococcus agalactiae (GC 4564)” value (Streptococcus sp.) was less than 0.06 µg/mL, the “MIC Streptococcus pneumoniae (GC 4565)” value (Streptococcus sp.) was less than 0.06 µg/mL and the “MIC Staphylococcus aureus (GC 1131)” value (Staphylococcus sp.; inoculum 5×10^5 CFU/mL) was 2 µg/mL (≈ 1.33 µM). The “MIC Staphylococcus aureus (ATCC 29213)” value (Staphylococcus sp.; strain ATCC 29213) was 2 µg/mL (≈ 1.33 µM), the “MIC Staphylococcus aureus (GC 1131)” value (Staphylococcus sp.) was 2 µg/mL (≈ 1.33 µM) and the “MIC Staphylococcus aureus (GC 3051)” value (Staphylococcus sp.; strain GC 3051) was 1 µg/mL (≈ 0.664 µM). The “MIC Staphylococcus aureus (GC 3053)” value (Staphylococcus sp.; strain GC 3053) was 2 µg/mL (≈ 1.33 µM), the “MIC Staphylococcus aureus (GC 4541)” value (Staphylococcus sp.; strain GC 4541) was 2 µg/mL (≈ 1.33 µM) and the “MIC Staphylococcus aureus (GC 4542)” value (Staphylococcus sp.; strain GC 4542) was 2 µg/mL (≈ 1.33 µM). For the same molecule, the “MIC Staphylococcus aureus (GC 4544)” value (Staphylococcus sp.; strain GC 4544) was 2 µg/mL (≈ 1.33 µM), the “MIC Staphylococcus aureus (GC 4545)” value (Staphylococcus sp.; strain GC 4545) was 2 µg/mL (≈ 1.33 µM) and the “MIC Staphylococcus aureus-SMITH (GC 4543)” value (Staphylococcus sp.; strain GC 4543) was 2 µg/mL (≈ 1.33 µM). The “MIC Staphylococcus haemolyticus (GC 4546)” value (Staphylococcus sp.; strain GC 4546) was 2 µg/mL (≈ 1.33 µM), the “MIC Coagulase Negative Staphylococcus (GC 4547)” value (Staphylococcus sp.; strain GC 4547) was 2 µg/mL (≈ 1.33 µM) and the “MIC Coagulase Negative Staphylococcus (GC 4548)” value (Staphylococcus sp.; strain GC 4548) was 1 µg/mL (≈ 0.664 µM). The “MIC Coagulase Negative Staphylococcus (GC 4549)” value (Staphylococcus sp.; strain GC 4549) was 1 µg/mL (≈ 0.664 µM), the “MIC Coagulase Negative Staphylococcus (GC 4551)” value (Staphylococcus sp.; strain GC 4551) was 1 µg/mL (≈ 0.664 µM) and the “MIC Coagulase Negative Staphylococcus (GC 6257)” value (Staphylococcus sp.; strain GC 6257) was 0.5 µg/mL (≈ 0.332 µM).
